{
  "source": "patent US20230384322A1",
  "about": "“COMPLEMENTOME ASSAY” (Complement Therapeutics Limited, priority 2020, published 2023)",
  "molecules": {"B1": {"name": "Complement Factor I (FI) (protein)", "chain": "KVTYTSQEDLVEKKCLAKKYTHLSCDKVFCQPWQRCIEGTCVCKLPYQCPKNGTAVCATNRRSFPTYCQQKSLECLHPGTKFLNNGTCTAEGKFSVSLKHGNTDSEGIVEVKLVDQDKTMFICKSSWSMREANVACLDLGFQQGADTQRRFKLSDLSINSTECLHVHCRGLETSLAECTFTKRRTMGYQDFADVVCYTQKADSPMDDFFQCVNGKYISQMKACDGINDCGDQSDELCCKACQGKGFHCKSGVCIPSQYQCNGEVDCITGEDEVGCAGFASVTQEETEILTADMDAERRRIKSLLPKLSCGVKNRMHIRRKRIVGGKRAQLGDLPWQVAIKDASGITCGGIYIGGCWILTAAHCLRASKTHRYQIWTTVVDWIHPDLKRIVIEYVDRIIFHENYNAGTYQNDIALIEMKKDGNKKDCELPRSIPACVPWSPYLFQPNDTCIVSGWGREKDNERVFSLQWGEVKLISNCSKFYGNRFYEKEMECAGTYDGSIDACKGDSGGPLVCMDANNVTYVWGVVSWGENCGKPEFPGVYTKVANYFDWISYHVGRPFISQYNV"}},
  "key": {"[1]": {"test_system": "U87, PDX12, PDX39, and PDX43", "experiment": "In vitro expression analysis of human CFH mRNA in different GBM cells with or without human IFNγ", "assay_type": "cell-based", "from_the_text": "FIGS. 14A to 14I. Indoleamine 2,3 dioxygenase 1 (IDO) and complement factor H (CFH) mRNA levels positively correlate with T cell infiltration in patient-resected glioblastoma (GBM). (14A) mRNA expression levels for IDO and CFH in grade II (green; n=226), grade III (blue; n=249), and grade IV (GBM; red; n=172) glioma of the RNA Hi-Seq. Illumina dataset as analyzed in the cancer genome atlas (TCGA). Horizontal lines in the scatter plots represents mean±SEM. (14B) Pearson's correlation analysis for IDO and CFH mRNA levels within GBM and all-grade glioma. […] CFH mRNA levels were analyzed in U87 GBM cells co-cultured with either naïve or activated T cells or conditioned medium from activated T cells in the presence or absence of IFNγ-neutralizing antibodies. […]\nTotal RNA was extracted from freshly dissected tissue samples and cultured cells using the Trizol Reagent and PureLink RNA Mini Kit (Thermo Fisher Scientific), respectively. […] Quantitative real-time PCR was performed on a CFX96 Touch Real-Time PCR Detection System using the default program setting (Bio-Rad). […] The relative quantitation of gene expression was calculated using the 2-AACT method (29) with normalization of the target threshold cycle (CT) values to the internal housekeeping gene (GAPDH)."}, "U87 GBM cells": {"test_system": "U87 GBM cells", "experiment": "Real-time RT-PCR of CFH/FHL-1/IDO expression in cultured U87 GBM cells", "assay_type": "cell-based, human", "protocol": "(§1) FIGS. 13A to 13E. Indoleamine 2,3 dioxygenase 1 (IDO) non-metabolically increases complement factor H (CFH) levels in human glioblastoma (GBM). (13A) Flow chart for the microarray experimental design, data analysis, as well as validation of results. Real-time RT-PCR confirmation of IDO regulatory effects on CFH expression in cultured (13B) U87 or (13C) PDX43 GBM. Cells were exposed to a variety of conditions including transfection with IDO specific siRNA (20 nM) or scrambled control siRNA for 16 hours, treatment with or without 100 ng/mL human interferon-gamma (IFN-γ), treatment with or without the IDO enzyme inhibitor, BGB-5777 (1 uM), or IFNγ plus BGB-5777 for 24 hours. Quantitative RT-PCR was performed (n=3 reflecting one representative experiment from 4 experimental repeats). (13D) Quantitative RT-PCR analysis of IDO and CFH mRNA expression on IFNγ-stimulated U87 cells treated with CFH siRNA or scrambled control siRNA. Same experimental conditions as in [13B] (n=3/group reflecting one representative experiment from 3 experimental repeats). (13E) mRNA expression levels for human IDO, CFH, and CD3 were quantified and compared among intracranial PDX43 and patient-resected newly-diagnosed or recurrent intracranial human GBM (n=4-9/group). Intracranially-engrafted (ic.) PDX43 was isolated from humanized mice with or without treatment of CD4′ and CD8^+ T cell depleting antibodies between 14-21 days post-intracranial injection. ***, P<0.001; ND: not detectable, ns: not significant. All bar graphs represent mean±SEM.\nFIGS. 15A to 15H. Indoleamine 2,3 dioxygenase 1 (IDO) enhances the expression of both complement factor H (CFH) isoforms in human glioblastoma (GBM). (15A) Schematic representation of CFH transcript variants reflecting the full-length (CFH) and truncated (FHL-1) sequences. Pearson's correlation analysis of (15B) IDO and (15C) CD3E with CFH and FHL-1 using the TCGA GBM RNA-Seq dataset. (15D) Left panel: Western blot analysis of surgically-resected tumor tissue samples from both newly diagnosed GBM patients and recurrent GBM patients. Right panel: Protein expression of full-length and truncated CFH variants and IDO in IFNγ-stimulated U87 cells. Cells were treated with IFNγ and cultured in serum-free medium for 24 to 48 hours. Both cell lysates and cell culture supernatants were collected. The supernatants were concentrated with ultrafiltration and analyzed by Western blot along with cell lysate samples. One representative result is shown that reflects 4 experimental repeats. (15E) Time course analysis of IDO, CFH, FHL-1 mRNA expression after treatment with IFNγ in U87 (top row) and PDX43 (bottom row) GBM cells. The U87 cells were stimulated with 100 ng/ml human IFNγ and RNA lysates were extracted followed by quantitative RT-PCR analysis (n=4). (15F) Western blot of cell lysates and supernatants collected from the same experimental design as in top panel. Data from one representative experiment from 2 experiments are shown. (15G) Top panel: Western blot showing IDO protein levels in unmodified (Unmod.) as well as in CRISPR-Cas9 IDO-deleted (IDOKO) U87 cells. Unmod. U87 cells and IDOKO U87 cells were stimulated with 100 ng/mL human IFNγ for 24 hours. Protein lysates were collected from both untreated and IFNγ treated cells followed by Western blotting analysis; Lower panel: HPLC measurement of kynurenine (Kyn) and tryptophan (Trp) in Unmod. U87 and IDOKO U87 cells. (15H) Comparison of IDO, CFH, and FHL-1 mRNA expression induction in Unmod. and IDOKO U87 cells using quantified RT-PCR (n=3 per group that reflects 1 representative experiment after 2 repeats). ***, P<0.001; ND: not detectable. All bar graphs represent mean±SEM.\nThe microarray analysis was carried out at the Northwestern University NUSeq Core Facility using the human transcriptome analysis system, Clariom™ D Assay (Thermo Fisher Scientific). Briefly, 1×10^5 cells per well of U87 cells or IDO-OE U87 cells were seeded on 12-well plate. […]"}, "PDX43 GBM cells": {"test_system": "PDX43 GBM cells", "experiment": "Real-time RT-PCR of CFH/FHL-1/IDO expression in cultured PDX43 GBM cells", "assay_type": "cell-based, human", "details": "IFNγ time course", "protocol": "as §1, with “Same experimental conditions as in [13B] (n=3/group reflecting one representative experiment from 3 experimental repeats).” left out, “Intracranially-engrafted (ic.) PDX43 was isolated from humanized mice with or without treatment of CD4′ and CD8^+ T cell depleting antibodies between 14-21 days post-intracranial injection. ***, P<0.001; ND: not detectable, ns: not significant. All bar graphs represent mean±SEM.” left out\nFIGS. 15A to 15H. […] The supernatants were concentrated with ultrafiltration and analyzed by Western blot along with cell lysate samples. […] The U87 cells were stimulated with 100 ng/ml human IFNγ and RNA lysates were extracted followed by quantitative RT-PCR analysis (n=4). […]"}, "U87 cells": {"test_system": "U87 cells", "experiment": "Western blotting of CFH, FHL-1 and IDO in U87 cell lysates and supernatants", "assay_type": "cell-based, human", "details": "serum-free medium 24 to 48 hours", "from_the_text": "FIGS. 15A to 15H. Indoleamine 2,3 dioxygenase 1 (IDO) enhances the expression of both complement factor H (CFH) isoforms in human glioblastoma (GBM). (15A) Schematic representation of CFH transcript variants reflecting the full-length (CFH) and truncated (FHL-1) sequences. Pearson's correlation analysis of (15B) IDO and (15C) CD3E with CFH and FHL-1 using the TCGA GBM RNA-Seq dataset. (15D) Left panel: Western blot analysis of surgically-resected tumor tissue samples from both newly diagnosed GBM patients and recurrent GBM patients. Right panel: Protein expression of full-length and truncated CFH variants and IDO in IFNγ-stimulated U87 cells. Cells were treated with IFNγ and cultured in serum-free medium for 24 to 48 hours. Both cell lysates and cell culture supernatants were collected. The supernatants were concentrated with ultrafiltration and analyzed by Western blot along with cell lysate samples. One representative result is shown that reflects 4 experimental repeats. […] The U87 cells were stimulated with 100 ng/ml human IFNγ and RNA lysates were extracted followed by quantitative RT-PCR analysis (n=4). […] (15H) Comparison of IDO, CFH, and FHL-1 mRNA expression induction in Unmod. and IDOKO U87 cells using quantified RT-PCR (n=3 per group that reflects 1 representative experiment after 2 repeats). ***, P<0.001; ND: not detectable. […]"}},
  "data": [
    {"molecule": "IFNγ: human recombinant interferon-gamma (Shenandoah Biotechnology), T cell effector cytokine", "values": [
      {"measurement": "Effect on CFH mRNA expression in human GBM cells", "setting": "[1]", "value": "increased CFH expression"},
      {"measurement": "Earliest time IDO mRNA expression is detectable after treatment", "setting": "U87 GBM cells; 100 ng/ml human IFNγ time course", "value": 4, "unit": "h"},
      {"measurement": "IDO, CFH and FHL-1 mRNA expression induction", "setting": "U87 GBM cells; CRISPR-Cas9 IDO-deleted (IDOKO) U87 cells", "value": "no such increase"},
      {"measurement": "Effect on CFH expression (quantitative RT-PCR)", "setting": "U87 GBM cells; U87 cells, 100 ng/mL, 24 hours", "value": "increase of CFH expression"},
      {"measurement": "Earliest time full-length and truncated CFH variants increased after treatment", "setting": "U87 GBM cells; U87 cells, 100 ng/ml human IFNγ time course", "value": 12, "unit": "h"},
      {"measurement": "IDO, CFH and FHL-1 mRNA expression induction", "setting": "U87 GBM cells; unmodified U87 cells, 100 ng/mL", "value": "induced and upregulated"},
      {"measurement": "Earliest time full-length and truncated CFH variants increased after treatment", "setting": "PDX43 GBM cells", "value": 12, "unit": "h"},
      {"measurement": "CFH and FHL-1 protein expression in cell culture supernatants (Western blot)", "setting": "U87 cells", "value": "higher"}
    ]},
    {"molecule": "IDO-specific siRNA: human IDO-specific siRNA duplex (GE Health Dharmacon), SEQ ID NO:174 and 175 (chain 1 GCUUAUGACGCCUGUGUGAUU; chain 2 UCACACAGGCGUCAUAAGCUU; listed as RNA, chemistry not given here; listed as Homo sapiens)", "values": [
      {"measurement": "Effect on CFH expression (quantitative RT-PCR)", "setting": "U87 GBM cells; U87 cells, siRNA 20 nM, 16 hours", "value": "decreased expression of CFH"}
    ]},
    {"molecule": "B1", "values": [
      {"measurement": "C3b breakdown in vitro (C3b incubated with FI and a fragment of cofactor CR1; time course followed by gel electrophoresis and GluC/SRM-MS)", "setting": "C3b", "value": "the formation of C3b fragments iC3b, C3f and C3c, and loss of intact C3b can be clearly detected over time"}
    ]}
  ]
}
